Reference: patent publication US10640533B2, “Epoxyketone compounds for enzyme inhibition” (CENTRAX INTERNATIONAL, INC., priority 2014, dated 2020)
Converted amounts (≈) assume the structure as drawn. Like-named read-outs stand apart in the source and are kept apart here.

What was measured:
[1] = target: 20S Immunoproteasome chymotrypsin-like (CT-L) activity (Homo sapiens (Human), UniProt P20618+P28062); experiment: 20S immunoproteasome CT-L activity inhibition, fluorogenic substrate succinyl-Leu-Leu-Val-Tyr-AMC; type: biochemical; details: purified human 20S proteasome, room temperature, one hour
Procedure: (§1) Inhibition of the 20S proteasome can be determined by methods and assays known in the art, for example, as disclosed by Stein et al., Biochemistry (1996), 35, 3899-3908; by Lightcap et al., Clinical Chemistry, 2000, 46, 673-683; by Kisselev et al., Journal of Biological Chemistry. (2006), 281, 8582-8590 and in U.S. application Ser. No. 09/569,748. The chymotrypsin-like (CT-L), peptidylglutamyl peptide hydrolyzing (PGPH) and trypsin-like (T-L) activities of the 20S proteasome are measured with a fluorogenic substrate assay method using succinyl-Leu-Leu-Val-Tyr-AMC, Z-Leu-Leu-Glu-AMC and Boc-Leu-Arg-Arg-AMC, respectively, as the substrates in an assay buffer. The free fluorophore 7-Amino-4-methylcoumarin (AMC) after cleavage from the substrates is quantified using a fluorometer and activity of CT-L, PGPH and T-L of 20S proteasome is determined.
(§2) Inhibition of the chymotrypsin-like (CT-L), peptidylglutamyl peptide hydrolyzing activity (PGPH), and trypsin-like (T-L) activities of the 20S proteasome in enzymatic assays were determined using succinyl-Leu-Leu-Val-Tyr-AMC (10 μmol/L), Z-Leu-Leu-Glu-AMC (10 μmol/L) and Boc-Leu-Arg-Arg-AMC (50 μmol/L), respectively, as the substrates with purified human 20S proteasome at 2, 4 and 8 nmol/L, respectively, in the assay buffer containing 25 mM HEPES (pH7.5), 0.5 mM EDTA, 0.002% sodium dodecyl sulfate (SDS) and 0.05% NP-40. Stock solutions of the 20S proteasome inhibitors disclosed herein were prepared in dimethyl sulfoxide (DMSO) and the final DMSO concentration in the assay mixture was 1%. Reaction was conducted at room temperature for one hour. Proteasome activity was measured based on detection of the fluorophore 7-Amino-4-methylcoumarin (AMC) after cleavage from the substrates with a plate-based spectrofluorometer.

[2] = target: 20S Immunoproteasome peptidylglutamyl peptide hydrolyzing (PGPH) activity (Homo sapiens (Human), UniProt P28065+P40306); experiment: 20S immunoproteasome PGPH activity inhibition, fluorogenic substrate Z-Leu-Leu-Glu-AMC; type: biochemical; details: purified human 20S proteasome, room temperature, one hour
Procedure: as §1, §2

[3] = target: 20S Immunoproteasome trypsin-like (T-L) activity (Homo sapiens (Human), UniProt P40306+P49720); experiment: 20S immunoproteasome T-L activity inhibition, fluorogenic substrate Boc-Leu-Arg-Arg-AMC; type: biochemical; details: purified human 20S proteasome, room temperature, one hour
Procedure: as §1, §2

[4] = target: Constitutive 20S proteasome chymotrypsin-like (CT-L) activity (Homo sapiens (Human), UniProt P20618+P28074); experiment: Constitutive 20S proteasome CT-L activity inhibition, fluorogenic substrate succinyl-Leu-Leu-Val-Tyr-AMC; type: biochemical
Procedure: as §1, §2

[5] = target: Constitutive 20S proteasome peptidylglutamyl peptide hydrolyzing (PGPH) activity (Homo sapiens (Human), UniProt P28072+Q99436); experiment: Constitutive 20S proteasome PGPH activity inhibition, fluorogenic substrate Z-Leu-Leu-Glu-AMC; type: biochemical; details: purified human 20S proteasome, room temperature, one hour
Procedure: as §1, §2

[6] = target: Constitutive 20S proteasome trypsin-like (T-L) activity (Homo sapiens (Human), UniProt P49720+Q99436); experiment: Constitutive 20S proteasome T-L activity inhibition, fluorogenic substrate Boc-Leu-Arg-Arg-AMC; type: biochemical
Procedure: as §1, §2

[7] = Aqueous solubility of the compounds; type: physicochemical; details: 50 mM citrate buffer, pH 4, aqueous buffer, thermodynamic from solid, 50 mM citrate pH4.0, 25° C.
Procedure: To determine the solubility of the compounds, 1-5 mg of a compound was weighed into a vial. 1 mL of aqueous buffer (50 mM citrate at pH4.0) was added. The vial was shaken at 25° C. for 24 hours and then centrifuged for 10 min at 10000 rpm. The supernatant was filtered through a 0.45 μm membrane filter and analyzed for the concentration of the compound. In certain embodiments, the aqueous solubility of the compounds is described herein in Table 1.

[8] = form of 20S proteasome not stated, 'below about'
[9] = purified human 20S proteasome, room temperature, one hour, read-out: Proteasome inhibition IC50 (nM) Constitutive 20S proteasome CT-L
[10] = purified human 20S proteasome, room temperature, one hour, read-out: Proteasome inhibition IC50 (nM) Constitutive 20S proteasome T-L
[11] = form of 20S proteasome not stated, 'below about', read-out: concentration showing inhibition of T-L activity of the 20S proteasome

| IC50 [1] | IC50 [2] | IC50 [3] | IC50 [4, 8] | IC50 [4, 9] | IC50 [5] | IC50 [6, 10] | solubility at 24 h [7] | IC50 [6, 11] | Structure (SMILES) |
| --- | --- | --- | --- | --- | --- | --- | --- | --- | --- |
| 60.4 nM | > 20000 nM | 5860 nM | < 50 nM | 13.5 nM | > 20000 nM | 11900 nM | 910 µg/mL (≈ 1500 µM) |  | Cc1ncc(C(=O)N[C@@H](CCc2ccccc2)C(=O)N[C@@H](Cc2ccncc2)C(=O)N[C@@H](CC(C)C)C(=O)[C@@]2(C)CO2)s1 [CX13-137] |
| 28.1 nM | > 20000 nM | 6450 nM | < 10 nM | 6.56 nM | > 20000 nM | 13400 nM | 1160 µg/mL (≈ 1970 µM) |  | Cc1cc(C(=O)N[C@@H](CCc2ccccc2)C(=O)N[C@@H](Cc2ccncc2)C(=O)N[C@@H](CC(C)C)C(=O)[C@@]2(C)CO2)no1 [CX13-135] |
|  |  |  |  |  |  |  | 570 µg/mL (≈ 1070 µM) |  | COC[C@H](NC(=O)c1cnc(C)s1)C(=O)N[C@@H](COC)C(=O)N[C@@H](Cc1ccccc1)C(=O)[C@@]1(C)CO1 [CX13-709] |
| 33.6 nM | > 20000 nM | > 20000 nM | < 50 nM | 33.3 nM | > 20000 nM | > 20000 nM | 1440 µg/mL (≈ 2130 µM) |  | CC(C)C[C@H](NC(=O)[C@H](CCc1ccccc1)NC(=O)c1cc(CN2CCOCC2)on1)C(=O)N[C@@H](Cc1ccncc1)C(=O)[C@@]1(C)CO1 [CX13-104] |
| 5.1 nM | > 20000 nM | 6220 nM | < 5 nM | 4.74 nM | > 20000 nM | 9950 nM | 83 µg/mL (≈ 137 µM) |  | CC(C)C[C@H](NC(=O)[C@H](CCc1ccccc1)NC(=O)CN1CCOCC1)C(=O)N[C@@H](Cc1ccccc1)C(=O)[C@@]1(C)CO1 [CX13-107] |
| 392 nM | > 20000 nM | > 20000 nM |  | 113 nM | > 20000 nM | > 20000 nM | 4480 µg/mL (≈ 8460 µM) |  | COC[C@H](NC(=O)c1cc(C)on1)C(=O)N[C@@H](Cc1ccncc1)C(=O)N[C@@H](CC(C)C)C(=O)[C@@]1(C)CO1 [CX13-501] |
| 15.3 nM | > 20000 nM | > 20000 nM | < 10 nM | 9.75 nM | > 20000 nM | 15800 nM | 20 µg/mL (≈ 33.7 µM) |  | COC[C@H](NC(=O)[C@H](CCc1ccccc1)NC(=O)c1cnc(C)s1)C(=O)N[C@@H](Cc1ccccc1)C(=O)[C@@]1(C)CO1 [CX13-705] |
| 1.34 nM | > 20000 nM | > 20000 nM | < 5 nM | 0.97 nM | > 20000 nM | > 20000 nM | 21 µg/mL (≈ 31.2 µM) |  | CC(C)C[C@H](NC(=O)[C@H](CCc1ccccc1)NC(=O)c1cc(CN2CCOCC2)on1)C(=O)N[C@@H](Cc1ccccc1)C(=O)[C@@]1(C)CO1 [CX13-105] |

The next lines start with the molecule.

| Structure (SMILES) | IC50 [1] | IC50 [2] | IC50 [3] | IC50 [4, 8] | IC50 [4, 9] | IC50 [5] | IC50 [6, 10] | solubility at 24 h [7] | IC50 [6, 11] |
| --- | --- | --- | --- | --- | --- | --- | --- | --- | --- |
| CC(C)C[C@H](NC(=O)[C@H](Cc1ccncc1)NC(=O)[C@H](CCc1ccccc1)NC(=O)Cc1ccc(CN2CCOCC2)cc1)C(=O)[C@@]1(C)CO1 [CX13-133] | 4.65 nM | > 20000 nM | 455 nM | < 5 nM | 3.58 nM | > 20000 nM | 443 nM | 6360 µg/mL (≈ 9110 µM) | < 500 nM |
| CC(=O)N[C@@H](CCc1ccccc1)C(=O)N[C@@H](Cc1ccncc1)C(=O)N[C@@H](CC(C)C)C(=O)[C@@]1(C)CO1 [CX13-130] | 248 nM | > 20000 nM | 1650 nM | < 100 nM | 62.4 nM | > 20000 nM | 3600 nM | 1360 µg/mL (≈ 2600 µM) |  |
| C[C@]1(C(=O)[C@H](Cc2ccccc2)NC(=O)[C@H](Cc2cscn2)NC(=O)[C@H](CCc2ccccc2)NC(=O)c2cc(CN3CCOCC3)on2)CO1 [CX13-605] | 6.81 nM | > 20000 nM | > 20000 nM | < 10 nM | 12.2 nM | > 20000 nM | > 20000 nM | 120 µg/mL (≈ 168 µM) |  |
| CC(C)C[C@H](NC(=O)[C@H](CCc1ccccc1)NC(=O)CN1CCOCC1)C(=O)N[C@@H](Cc1ccncc1)C(=O)[C@@]1(C)CO1 [CX13-109] | > 500 nM | > 20000 nM | > 20000 nM |  | > 500 nM | > 20000 nM | > 20000 nM | 3490 µg/mL (≈ 5740 µM) |  |
| COC[C@H](NC(=O)c1cc(CN2CCOCC2)on1)C(=O)N[C@@H](Cc1ccncc1)C(=O)N[C@@H](CC(C)C)C(=O)[C@@]1(C)CO1 [CX13-500] | 170 nM | > 20000 nM | > 20000 nM |  | 121 nM | > 20000 nM | > 20000 nM | > 2350 µg/mL |  |
| CC(C)C[C@H](NC(=O)[C@H](Cc1ccccc1)NC(=O)[C@H](CCc1ccccc1)NC(=O)c1cc(CN2CCOCC2)on1)C(=O)[C@@]1(C)CO1 [CX13-600] | 7.41 nM | > 20000 nM | 19900 nM | < 5 nM | 4.28 nM | > 20000 nM | > 20000 nM | 20 µg/mL (≈ 29.7 µM) |  |
| COC[C@H](NC(=O)[C@H](CCc1ccccc1)NC(=O)c1cc(CN2CCOCC2)on1)C(=O)N[C@@H](CC(C)C)C(=O)[C@@]1(C)CO1 [CX13-601] | 31.7 nM | > 20000 nM | > 20000 nM | < 50 nM | 16 nM | > 20000 nM | > 20000 nM | 480 µg/mL (≈ 765 µM) |  |
| COC[C@H](NC(=O)[C@H](CCc1ccccc1)NC(=O)Cc1ccc(CN2CCOCC2)cc1)C(=O)N[C@@H](CC(C)C)C(=O)[C@@]1(C)CO1 [CX13-606] | 59.3 nM | > 20000 nM | 186 nM | < 10 nM | 6.1 nM | > 20000 nM | 297 nM | 3730 µg/mL (≈ 5730 µM) | < 500 nM |
